{"source": "paper PMC5438973", "about": "(Frontiers in Psychiatry, 2017)", "key": {"Male, NIH Swiss mice [1]": {"tested_on": "Male, NIH Swiss mice", "assay": "Rotarod performance", "format": "in vivo, mouse", "conditions": "mice, 10 mg/kg", "excerpt": "Mice were not pretrained on this task."}, "h5-HT1F": {"biological_target": "T1, h5-HT1F (Homo sapiens, UniProt P30939)", "T1 construct": "expressed in transfected cells", "T1 sequence (P30939 whole entry)": "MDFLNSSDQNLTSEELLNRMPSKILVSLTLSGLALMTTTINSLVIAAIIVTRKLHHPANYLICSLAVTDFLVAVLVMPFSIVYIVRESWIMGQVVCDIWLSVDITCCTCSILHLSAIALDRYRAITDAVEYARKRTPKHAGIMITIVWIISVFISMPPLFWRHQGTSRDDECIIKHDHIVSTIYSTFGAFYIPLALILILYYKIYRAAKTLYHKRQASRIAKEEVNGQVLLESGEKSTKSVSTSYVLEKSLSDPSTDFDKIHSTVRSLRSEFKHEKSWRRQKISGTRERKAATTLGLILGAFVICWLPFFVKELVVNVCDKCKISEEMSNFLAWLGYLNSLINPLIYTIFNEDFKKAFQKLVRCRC", "assay": "Radioligand binding, human cloned h5-HT1F", "conditions": "agonist radioligand, read-out: Affinity, Mean", "protocol": "(§1) Binding affinities at the serotonin receptors were determined by standard radioligand-binding methods using human cloned receptors as reported in the literature ([14], [15])."}, "h5-HT4": {"biological_target": "T2, h5-HT4 (Homo sapiens, UniProt Q13639)", "T2 construct": "expressed in transfected cells", "assay": "Radioligand binding, human cloned h5-HT4", "conditions": "agonist radioligand, n = 2, read-out: Affinity, Mean", "protocol": "as §1"}, "h5-HT1B": {"biological_target": "T3, h5-HT1B (Homo sapiens, UniProt P28222)", "T3 construct": "expressed in transfected cells", "assay": "Radioligand binding, human cloned h5-HT1B", "conditions": "agonist radioligand, read-out: Affinity, Mean", "protocol": "as §1"}, "h5-HT7": {"biological_target": "T4, h5-HT7 (Homo sapiens, UniProt P34969)", "T4 construct": "expressed in transfected cells", "T4 sequence (P34969 whole entry)": "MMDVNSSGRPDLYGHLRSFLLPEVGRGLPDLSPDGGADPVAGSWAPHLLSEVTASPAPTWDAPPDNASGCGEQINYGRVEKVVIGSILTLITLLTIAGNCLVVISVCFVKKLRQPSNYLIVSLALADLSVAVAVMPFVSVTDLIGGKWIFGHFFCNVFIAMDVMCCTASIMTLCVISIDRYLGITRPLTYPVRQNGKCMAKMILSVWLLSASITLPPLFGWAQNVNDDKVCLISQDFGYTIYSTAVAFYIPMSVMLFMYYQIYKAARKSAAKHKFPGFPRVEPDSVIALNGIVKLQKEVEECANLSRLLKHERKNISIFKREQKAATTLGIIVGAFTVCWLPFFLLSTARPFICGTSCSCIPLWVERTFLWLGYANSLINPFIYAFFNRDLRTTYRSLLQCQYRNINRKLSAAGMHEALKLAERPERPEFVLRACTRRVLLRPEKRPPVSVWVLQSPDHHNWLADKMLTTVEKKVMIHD", "assay": "Radioligand binding, human cloned h5-HT7", "protocol": "as §1"}, "Male, Wistar rats": {"tested_on": "Male, Wistar rats", "assay": "Isoproterenol-induced drinking", "format": "in vivo, rat", "conditions": "5.6 mg/kg", "protocol": "Male, Wistar rats (different from those rats used in the schedule-induced polydipsia studies) were used. They were 331 ± 11 g at the initiation of this study. Compound 1 (5.6 mg/kg, s.c.) was evaluated for its ability to reduce drinking. (±)-isoproterenol (30 μg/kg, s.c.) was given to induce drinking (n = 5–20 rat/group). Ten minutes after vehicle or (±)-isoproterenol injection, rats were given either vehicle or Compound 1 and a 60 min session began in which the rats in individual housing cages were given access to water 20 min after the second injection. The weight of the water bottle before and after the 60 min period was measured to the nearest 0.1 g. After the experiment, the animals were returned to their living cages with continuous access to food and water."}, "h5-HT1A": {"biological_target": "T5, h5-HT1A (Homo sapiens, UniProt P08908)", "T5 construct": "expressed in transfected cells", "T5 sequence (P08908 whole entry)": "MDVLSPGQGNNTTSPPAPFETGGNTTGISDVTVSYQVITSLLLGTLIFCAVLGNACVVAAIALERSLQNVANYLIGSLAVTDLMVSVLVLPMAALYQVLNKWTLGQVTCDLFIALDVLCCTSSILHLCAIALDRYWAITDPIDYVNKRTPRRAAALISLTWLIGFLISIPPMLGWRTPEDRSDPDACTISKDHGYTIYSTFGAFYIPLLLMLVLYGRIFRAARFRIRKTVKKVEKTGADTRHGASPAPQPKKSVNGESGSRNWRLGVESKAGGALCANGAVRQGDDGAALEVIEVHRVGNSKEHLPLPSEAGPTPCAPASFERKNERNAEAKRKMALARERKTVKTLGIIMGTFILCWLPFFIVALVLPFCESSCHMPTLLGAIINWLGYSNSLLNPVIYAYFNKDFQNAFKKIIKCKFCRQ", "assay": "Radioligand binding, human cloned h5-HT1A", "conditions": "agonist radioligand, read-out: Affinity, Mean", "protocol": "as §1"}, "h5-HT2B": {"biological_target": "T6, h5-HT2B (Homo sapiens, UniProt P41595)", "T6 construct": "expressed in transfected cells; host or cells: AV12 cells", "T6 sequence (P41595 whole entry)": "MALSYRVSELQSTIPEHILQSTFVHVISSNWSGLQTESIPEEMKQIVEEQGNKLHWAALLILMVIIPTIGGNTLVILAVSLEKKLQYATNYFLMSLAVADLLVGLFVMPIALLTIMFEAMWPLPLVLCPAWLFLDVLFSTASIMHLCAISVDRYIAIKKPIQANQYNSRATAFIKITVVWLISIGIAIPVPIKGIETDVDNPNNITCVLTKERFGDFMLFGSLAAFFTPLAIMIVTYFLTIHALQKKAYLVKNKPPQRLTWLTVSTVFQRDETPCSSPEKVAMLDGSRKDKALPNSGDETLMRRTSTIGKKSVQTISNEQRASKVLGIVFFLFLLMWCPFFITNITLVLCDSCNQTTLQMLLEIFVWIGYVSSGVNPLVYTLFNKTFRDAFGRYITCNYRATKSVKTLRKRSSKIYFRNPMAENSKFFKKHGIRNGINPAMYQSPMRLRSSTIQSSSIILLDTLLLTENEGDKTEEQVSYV", "assay": "Radioligand binding, human cloned h5-HT2B", "protocol": "as §1"}, "D4.4": {"biological_target": "T7, D4.4 (Homo sapiens, UniProt P21917)", "T7 construct": "CEREP", "T7 sequence (P21917 whole entry)": "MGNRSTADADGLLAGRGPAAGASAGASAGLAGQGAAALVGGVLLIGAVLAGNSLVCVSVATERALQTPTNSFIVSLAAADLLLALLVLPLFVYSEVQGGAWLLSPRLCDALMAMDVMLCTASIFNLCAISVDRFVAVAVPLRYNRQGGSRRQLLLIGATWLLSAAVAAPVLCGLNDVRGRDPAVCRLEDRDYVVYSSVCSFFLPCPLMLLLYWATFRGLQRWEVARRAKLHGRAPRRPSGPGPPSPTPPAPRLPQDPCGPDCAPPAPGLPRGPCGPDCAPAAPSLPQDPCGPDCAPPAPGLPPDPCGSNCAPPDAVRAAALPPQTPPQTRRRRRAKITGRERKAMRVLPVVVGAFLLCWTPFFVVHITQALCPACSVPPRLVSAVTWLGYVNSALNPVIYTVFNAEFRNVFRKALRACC", "assay": "CEREP broad receptor screening panel", "format": "binding", "conditions": "CPD 1 10 µM (table title), duplicate", "protocol": "(§2) Additional selectivity assessment of CPD 1 was performed at CEREP. Methods are available for the multiple assays utilized at http://www.cerep.fr/cerep/users/pages/catalog/assay/catalog.asp. The specific ligand binding to the receptors is defined as the difference between the total binding and the non-specific binding determined in the presence of an excess of unlabeled ligand."}, "D3": {"biological_target": "T8, D3 (Homo sapiens, UniProt P35462)", "T8 construct": "CEREP", "assay": "CEREP broad receptor screening panel", "format": "binding", "conditions": "CPD 1 10 µM (table title), duplicate", "protocol": "as §2"}, "D2s": {"biological_target": "T9, D2s (Homo sapiens, UniProt P14416)", "T9 construct": "CEREP", "assay": "CEREP broad receptor screening panel", "format": "binding", "conditions": "CPD 1 10 µM (table title), duplicate", "protocol": "as §2"}, "α2": {"tested_on": "α2", "assay": "CEREP broad receptor screening panel", "format": "binding", "conditions": "CPD 1 10 mM (table title), duplicate", "protocol": "as §2"}, "NE transporter": {"biological_target": "T10, NE transporter (Homo sapiens, UniProt P23975)", "T10 construct": "CEREP (contract screening)", "T10 sequence (P23975 whole entry)": "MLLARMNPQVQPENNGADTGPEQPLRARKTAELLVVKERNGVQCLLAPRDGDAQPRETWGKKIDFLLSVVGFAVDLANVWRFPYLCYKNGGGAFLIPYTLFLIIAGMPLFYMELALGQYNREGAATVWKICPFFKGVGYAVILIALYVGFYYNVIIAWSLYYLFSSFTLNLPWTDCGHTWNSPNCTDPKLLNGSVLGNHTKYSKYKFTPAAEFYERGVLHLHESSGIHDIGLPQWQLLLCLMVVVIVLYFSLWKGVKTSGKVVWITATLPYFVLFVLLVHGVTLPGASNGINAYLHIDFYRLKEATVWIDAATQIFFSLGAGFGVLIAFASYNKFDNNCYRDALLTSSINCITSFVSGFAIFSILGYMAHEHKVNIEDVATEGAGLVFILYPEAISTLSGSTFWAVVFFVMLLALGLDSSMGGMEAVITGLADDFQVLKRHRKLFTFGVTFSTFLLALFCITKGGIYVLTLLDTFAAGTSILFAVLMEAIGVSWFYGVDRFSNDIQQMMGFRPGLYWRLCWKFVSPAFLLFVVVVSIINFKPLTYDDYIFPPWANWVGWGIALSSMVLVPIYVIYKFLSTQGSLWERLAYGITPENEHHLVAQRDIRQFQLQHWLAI", "assay": "CEREP broad receptor screening panel", "format": "binding", "conditions": "CPD 1 10 µM (table title), duplicate", "protocol": "as §2"}, "M3": {"biological_target": "T11, M3 (Homo sapiens, UniProt P20309)", "T11 construct": "CEREP (contract screening)", "T11 sequence (P20309 whole entry)": "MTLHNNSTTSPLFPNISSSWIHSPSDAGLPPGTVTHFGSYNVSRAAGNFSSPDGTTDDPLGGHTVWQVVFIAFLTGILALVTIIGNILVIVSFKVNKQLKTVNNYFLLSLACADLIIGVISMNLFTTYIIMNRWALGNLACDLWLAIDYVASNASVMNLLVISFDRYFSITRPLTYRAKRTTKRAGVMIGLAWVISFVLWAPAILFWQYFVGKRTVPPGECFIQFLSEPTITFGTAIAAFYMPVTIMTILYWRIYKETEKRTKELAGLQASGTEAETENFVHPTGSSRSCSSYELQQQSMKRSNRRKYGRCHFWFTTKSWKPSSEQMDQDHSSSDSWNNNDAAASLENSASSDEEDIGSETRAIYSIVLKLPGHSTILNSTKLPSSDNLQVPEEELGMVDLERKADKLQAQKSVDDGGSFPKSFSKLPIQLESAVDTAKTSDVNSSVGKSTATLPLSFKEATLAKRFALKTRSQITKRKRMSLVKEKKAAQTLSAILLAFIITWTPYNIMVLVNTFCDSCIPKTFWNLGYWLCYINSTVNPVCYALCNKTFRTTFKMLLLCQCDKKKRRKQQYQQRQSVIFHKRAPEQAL", "assay": "CEREP broad receptor screening panel", "format": "binding", "conditions": "CPD 1 10 µM (table title), duplicate", "protocol": "as §2"}, "Male, NIH Swiss mice [2]": {"tested_on": "Male, NIH Swiss mice", "assay": "Nestlet-shredding", "conditions": "8/dose group"}, "h5-HT1E": {"biological_target": "T12, h5-HT1E (Homo sapiens, UniProt P28566)", "T12 construct": "expressed in transfected cells", "T12 sequence (P28566 whole entry)": "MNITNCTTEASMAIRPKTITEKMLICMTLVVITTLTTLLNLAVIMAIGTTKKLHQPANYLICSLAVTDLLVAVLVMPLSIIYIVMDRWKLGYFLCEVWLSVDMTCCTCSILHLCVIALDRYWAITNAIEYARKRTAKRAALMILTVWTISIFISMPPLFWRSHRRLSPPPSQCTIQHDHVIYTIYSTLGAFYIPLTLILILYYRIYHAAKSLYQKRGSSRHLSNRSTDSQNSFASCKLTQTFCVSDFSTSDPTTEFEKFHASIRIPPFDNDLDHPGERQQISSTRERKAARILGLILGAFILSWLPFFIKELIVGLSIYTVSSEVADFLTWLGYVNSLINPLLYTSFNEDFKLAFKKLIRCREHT", "assay": "Radioligand binding, human cloned h5-HT1E", "conditions": "agonist radioligand, read-out: Affinity, Mean", "protocol": "as §1"}, "h5-HT2A": {"biological_target": "T13, h5-HT2A (Homo sapiens, UniProt P28223)", "T13 construct": "expressed in transfected cells; host or cells: AV12 cells", "T13 sequence (P28223 whole entry)": "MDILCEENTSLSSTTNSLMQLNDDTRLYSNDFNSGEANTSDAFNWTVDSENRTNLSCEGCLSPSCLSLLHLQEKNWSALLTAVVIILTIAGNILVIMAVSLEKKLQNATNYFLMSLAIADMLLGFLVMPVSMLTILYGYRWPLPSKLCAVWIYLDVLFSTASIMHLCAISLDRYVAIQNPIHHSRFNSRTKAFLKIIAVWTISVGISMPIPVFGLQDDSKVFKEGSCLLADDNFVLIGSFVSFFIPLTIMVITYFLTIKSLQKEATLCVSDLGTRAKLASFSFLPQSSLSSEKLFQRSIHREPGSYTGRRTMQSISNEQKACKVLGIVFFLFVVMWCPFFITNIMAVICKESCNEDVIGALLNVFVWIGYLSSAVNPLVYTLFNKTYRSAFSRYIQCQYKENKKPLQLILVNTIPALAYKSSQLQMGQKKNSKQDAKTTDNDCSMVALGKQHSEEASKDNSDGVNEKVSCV", "assay": "Radioligand binding, human cloned h5-HT2A", "protocol": "as §1"}, "h5-HT2C": {"biological_target": "T14, h5-HT2C (Homo sapiens, UniProt P28335)", "T14 construct": "expressed in transfected cells; host or cells: AV12 cells", "T14 sequence (P28335 33-458)": "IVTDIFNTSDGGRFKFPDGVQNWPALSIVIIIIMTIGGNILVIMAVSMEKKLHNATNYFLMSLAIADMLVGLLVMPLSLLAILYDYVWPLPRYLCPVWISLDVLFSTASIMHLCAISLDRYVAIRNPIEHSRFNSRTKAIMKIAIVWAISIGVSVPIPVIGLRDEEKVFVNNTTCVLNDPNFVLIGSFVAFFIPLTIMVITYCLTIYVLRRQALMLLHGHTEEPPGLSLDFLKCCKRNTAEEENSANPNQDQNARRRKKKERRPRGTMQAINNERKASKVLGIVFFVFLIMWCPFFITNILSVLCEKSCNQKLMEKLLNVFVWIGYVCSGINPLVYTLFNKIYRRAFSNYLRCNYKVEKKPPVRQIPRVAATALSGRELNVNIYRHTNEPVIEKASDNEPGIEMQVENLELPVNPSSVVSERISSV", "assay": "Radioligand binding, human cloned h5-HT2C", "conditions": "agonist radioligand, read-out: Affinity, Mean", "protocol": "as §1"}}, "note": "Where “and” joins values, the source holds several entries; their conditions need not be identical. Equal values may be shown once."}
{"smiles": "C[C@H]1CN(c2ccc(C(F)(F)F)c3ccoc23)CCN1", "note": "[CPD 1, (3S)-3-methyl-1-[4-(trifluoromethyl)-7-benzofuranyl]-piperazine]", "values": [{"measurement": "Rotarod falls and failures", "setting": "Male, NIH Swiss mice [1]; after 5 days of dosing, 12 mice", "value": "neither falls nor failures"}, {"measurement": "Rotarod failures (mice failing / tested)", "setting": "Male, NIH Swiss mice [1]; day 1", "value": "0/12"}, {"measurement": "Rotarod falls (mice falling / tested)", "setting": "Male, NIH Swiss mice [1]; day 1", "value": "2/12"}, {"measurement": "Ki", "setting": "h5-HT1F", "value": 540, "unit": "nM"}, {"measurement": "Ki", "setting": "h5-HT4", "value": 977, "unit": "nM"}, {"measurement": "Ki", "setting": "h5-HT1B", "value": 1110, "unit": "nM"}, {"measurement": "Ki", "setting": "h5-HT7; agonist radioligand, h5-HT7, read-out: Affinity, Mean", "value": "> 2000", "unit": "nM"}, {"measurement": "inhibition at 2 µM", "setting": "h5-HT7; at a concentration of 2 µM", "value": "< 50", "unit": "%"}, {"measurement": "Reduction of isoproterenol-induced drinking", "setting": "Male, Wistar rats; s.c.", "value": 77, "unit": "%"}, {"measurement": "Effect on normal drinking", "setting": "Male, Wistar rats; without isoproterenol", "value": "did not significantly affect"}, {"measurement": "Ki", "setting": "h5-HT1A", "value": 205, "unit": "nM"}, {"measurement": "Ki", "setting": "h5-HT2B; agonist radioligand, h5-HT2B, read-out: Affinity, Mean", "value": 104, "unit": "nM"}, {"measurement": "selectivity for h5-HT2C over h5-HT2B receptors", "setting": "h5-HT2B; binding affinities", "value": 50, "unit": "fold"}, {"measurement": "inhibition at 10 µM", "setting": "D4.4", "value": 105, "unit": "%"}, {"measurement": "inhibition at 10 µM", "setting": "D3", "value": 82, "unit": "%"}, {"measurement": "inhibition at 10 µM", "setting": "D2s", "value": 61, "unit": "%"}, {"measurement": "% Inhibition", "setting": "α2", "value": 70, "unit": "%"}, {"measurement": "inhibition at 10 µM", "setting": "NE transporter", "value": 74, "unit": "%"}, {"measurement": "inhibition at 10 µM", "setting": "M3", "value": 76, "unit": "%"}, {"measurement": "Nestlet-shredding, minimal effective dose", "setting": "Male, NIH Swiss mice [2]", "value": 3, "unit": "milligrams per kilogram"}, {"measurement": "Ki", "setting": "h5-HT1E", "value": 1040, "unit": "nM"}, {"measurement": "Ki", "setting": "h5-HT2A; agonist radioligand, h5-HT2A, read-out: Affinity, Mean", "value": 47.2, "unit": "nM"}, {"measurement": "selectivity for h5-HT2C over h5-HT2A receptors", "setting": "h5-HT2A; binding affinities", "value": 22, "unit": "fold"}, {"measurement": "Ki", "setting": "h5-HT2C", "value": "2 nM and 2.11 nM"}]}
